The text below walks through data of patent US20250236608A1, “EGFR INHIBITORS” (Blueprint Medicines Corporation, priority 2022, published 2025).

A word on the IC50: it is the concentration needed to halve the response being measured.

The test system of one assay is EGFR mutant NSCLC. The note with it: cited from earlier work; for objective response rate (ORR): EGFR M+ NSCLC patients treated first line (1 L).
Another assay concerns the target EGFR L858R (Homo sapiens (Human), UniProt P00533, L858R). The assay is described as follows: Biochemical EGFR inhibition assay, EGFR L858R. As to conditions: Caliper mobility shift; 1.0 mM ATP or ATP Km; read-out: Enz EGFR_L858R IC50.
Assay [1] has as its target pEGFR (Tyr1068) in PC-9 cells (Ex19Del) (Homo sapiens (Human), UniProt P00533, DEL746-750). The assay can be described thus: PC-9 pEGFR AlphaLISA assay. Format: cell-based. The note with it: 4 hours incubation, p-EGFR (Tyr1068) AlphaLISA, read-out: Ext pEGFR_PC-9 Ex19Del IC50. The procedure, abridged: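 Phospho-EGFR (Tyr1068) was quantified by AlphaLISA SureFire Ultra in lysates of PC-9 cells exposed for 4 h to compound (4-fold, 10-point dilutions).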

A further assay addresses EGFR (d746-750) (Homo sapiens (Human), UniProt P00533, DEL746-750). The assay can be described thus: Biochemical EGFR inhibition assay, EGFR (d746-750). As to conditions: Caliper mobility shift; 1.0 mM ATP or ATP Km; read-out: Enz EGFR_Exon19-del746-750 IC50.

Chain of EGFR (d746-750) (P00533 other isoform, or with tags, fused parts or gaps del 1-694/del 746-750 limits assumed): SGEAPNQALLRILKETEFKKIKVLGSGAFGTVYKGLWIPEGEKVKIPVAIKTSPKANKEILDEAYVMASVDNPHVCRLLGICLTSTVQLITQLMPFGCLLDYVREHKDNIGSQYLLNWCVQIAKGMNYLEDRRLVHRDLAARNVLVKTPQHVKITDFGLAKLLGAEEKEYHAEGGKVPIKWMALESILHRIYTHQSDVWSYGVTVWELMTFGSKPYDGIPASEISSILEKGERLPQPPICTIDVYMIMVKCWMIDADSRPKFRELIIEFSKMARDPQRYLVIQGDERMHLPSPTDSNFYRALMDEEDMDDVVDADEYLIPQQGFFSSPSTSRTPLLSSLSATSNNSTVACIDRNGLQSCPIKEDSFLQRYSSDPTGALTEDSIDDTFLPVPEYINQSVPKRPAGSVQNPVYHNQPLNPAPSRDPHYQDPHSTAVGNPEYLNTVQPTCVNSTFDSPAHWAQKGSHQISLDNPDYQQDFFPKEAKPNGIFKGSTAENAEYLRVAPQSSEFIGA
Chain of EGFR L858R (P00533 25-1210 L858R): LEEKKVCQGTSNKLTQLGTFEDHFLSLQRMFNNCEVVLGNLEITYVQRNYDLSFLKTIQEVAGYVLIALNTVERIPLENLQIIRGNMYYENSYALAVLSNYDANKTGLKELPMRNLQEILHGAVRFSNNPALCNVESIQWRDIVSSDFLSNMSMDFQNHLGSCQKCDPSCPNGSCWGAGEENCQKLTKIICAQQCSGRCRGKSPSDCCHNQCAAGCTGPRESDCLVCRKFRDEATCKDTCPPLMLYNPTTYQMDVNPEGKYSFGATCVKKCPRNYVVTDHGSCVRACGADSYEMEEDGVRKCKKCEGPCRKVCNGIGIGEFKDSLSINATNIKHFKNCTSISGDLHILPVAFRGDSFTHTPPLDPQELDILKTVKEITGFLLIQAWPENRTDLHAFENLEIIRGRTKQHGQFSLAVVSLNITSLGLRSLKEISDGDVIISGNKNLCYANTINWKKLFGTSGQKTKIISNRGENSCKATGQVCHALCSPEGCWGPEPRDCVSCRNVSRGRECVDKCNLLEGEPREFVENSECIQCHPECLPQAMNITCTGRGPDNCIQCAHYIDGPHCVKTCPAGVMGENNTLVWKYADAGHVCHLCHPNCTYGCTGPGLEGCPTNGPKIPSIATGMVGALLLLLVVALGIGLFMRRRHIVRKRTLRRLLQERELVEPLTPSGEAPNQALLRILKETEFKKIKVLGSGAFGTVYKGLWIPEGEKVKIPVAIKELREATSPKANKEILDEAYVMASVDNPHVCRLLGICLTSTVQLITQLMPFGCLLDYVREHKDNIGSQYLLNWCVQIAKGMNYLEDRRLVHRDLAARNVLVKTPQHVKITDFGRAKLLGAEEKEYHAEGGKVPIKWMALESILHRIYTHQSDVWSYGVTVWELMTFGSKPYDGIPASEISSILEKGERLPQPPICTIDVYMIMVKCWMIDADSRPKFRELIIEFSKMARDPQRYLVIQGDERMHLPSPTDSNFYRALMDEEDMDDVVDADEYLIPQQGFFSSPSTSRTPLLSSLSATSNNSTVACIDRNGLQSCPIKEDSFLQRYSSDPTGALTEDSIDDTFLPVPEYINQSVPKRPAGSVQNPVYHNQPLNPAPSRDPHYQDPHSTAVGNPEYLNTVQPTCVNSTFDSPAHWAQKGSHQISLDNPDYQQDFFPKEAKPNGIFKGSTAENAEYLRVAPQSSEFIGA
Chain of pEGFR (Tyr1068) in PC-9 cells (Ex19Del) (P00533 other isoform, or with tags, fused parts or gaps del 746-750): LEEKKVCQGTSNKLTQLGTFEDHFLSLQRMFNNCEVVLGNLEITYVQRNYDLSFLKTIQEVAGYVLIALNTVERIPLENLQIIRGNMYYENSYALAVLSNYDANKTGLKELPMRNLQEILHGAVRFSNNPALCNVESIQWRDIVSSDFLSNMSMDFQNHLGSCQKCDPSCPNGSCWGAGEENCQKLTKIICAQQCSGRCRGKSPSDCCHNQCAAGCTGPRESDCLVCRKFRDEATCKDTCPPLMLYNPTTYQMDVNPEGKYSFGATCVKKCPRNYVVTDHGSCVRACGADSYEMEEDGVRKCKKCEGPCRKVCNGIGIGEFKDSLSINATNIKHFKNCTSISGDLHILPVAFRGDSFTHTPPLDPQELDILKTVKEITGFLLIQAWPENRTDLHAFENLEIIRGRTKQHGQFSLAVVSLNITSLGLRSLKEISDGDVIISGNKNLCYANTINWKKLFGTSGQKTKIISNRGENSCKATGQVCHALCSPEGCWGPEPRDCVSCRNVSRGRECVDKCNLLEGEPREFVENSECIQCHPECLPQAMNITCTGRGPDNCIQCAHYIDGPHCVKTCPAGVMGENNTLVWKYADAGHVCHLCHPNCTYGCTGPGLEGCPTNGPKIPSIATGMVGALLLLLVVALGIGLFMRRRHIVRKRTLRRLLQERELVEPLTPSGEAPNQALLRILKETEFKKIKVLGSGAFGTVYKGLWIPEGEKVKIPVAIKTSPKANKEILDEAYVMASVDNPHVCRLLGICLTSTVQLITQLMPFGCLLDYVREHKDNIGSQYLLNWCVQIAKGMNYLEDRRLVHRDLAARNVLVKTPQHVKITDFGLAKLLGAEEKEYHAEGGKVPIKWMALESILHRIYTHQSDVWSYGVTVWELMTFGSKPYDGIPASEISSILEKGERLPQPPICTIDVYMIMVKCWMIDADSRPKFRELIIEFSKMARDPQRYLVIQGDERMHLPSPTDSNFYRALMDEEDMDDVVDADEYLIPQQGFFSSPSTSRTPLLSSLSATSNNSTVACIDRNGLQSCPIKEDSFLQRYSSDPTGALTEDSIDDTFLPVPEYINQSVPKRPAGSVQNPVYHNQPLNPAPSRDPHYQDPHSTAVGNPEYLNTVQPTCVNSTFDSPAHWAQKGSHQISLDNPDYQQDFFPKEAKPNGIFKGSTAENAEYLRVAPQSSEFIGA

`C#Cc1cccc(Nc2ncnc3cc(OCCOC)c(OCCOC)cc23)c1` [erlotinib]: in the assay on EGFR mutant NSCLC, the “objective response rate (ORR)” value was 60-85%.
As to `C=CC(=O)Nc1cc(Nc2nccc(-c3cn(C)c4ccccc34)n2)c(OC)cc1N(C)CCN(C)C` [osimertinib], the “objective response rate (ORR)” value in the assay on EGFR mutant NSCLC is given as 60-85%. The “progression-free survival (PFS)” value in the assay with EGFR mutant NSCLC (first line, NSCLC harboring del 19 and L858R mutations) is on record as 18.9 mo.
In the case of `COc1cc2ncnc(-c3cn(C)nc3-c3ccccc3)c2cc1OC(=O)N1CCN(C)CC1C` (stereo not drawn) [Example 57, 7-methoxy-4-(1-methyl-3-phenyl-1H-pyrazol-4-yl)quinazolin-6-yl 2,4-dimethylpiperazine-1-carboxylate], the IC50 on EGFR L858R is 2.3 nM; in assay [1] it was 2.2 nM; on EGFR (d746-750), 1.7 nM.
On to `COc1cc2ncnc(-c3cn(C)nc3-c3ccccc3)c2nc1O[C@H](C)c1ncsc1C` (single isomer, unassigned) [Example 53, (R)-4-(1-((7-methoxy-4-(1-methyl-3-phenyl-1H-pyrazol-4-yl)pyrido[3,2-d]pyrimidin-6-yl)oxy)ethyl)-5-methylthiazole or (S)-4-(1-((7-methoxy-4-(1-methyl-3-phenyl-1H-pyrazol-4-yl)pyrido[3,2-d]pyrimidin-6-yl)oxy)ethyl)-5-methylthiazole], for which the half-inhibitory concentration (IC50) stood at 12.8 nM on EGFR L858R, 2.7 nM in assay [1] and 1.1 nM on EGFR (d746-750).
In the same order, the values of `COc1cc2ncnc(-c3cn(C)nc3-c3ccccc3)c2cc1NC(=O)c1ccncc1Cl` [Example 190, 3-chloro-N-(7-methoxy-4-(1-methyl-3-phenyl-1H-pyrazol-4-yl)quinazolin-6-yl)isonicotinamide] are 1.1 nM, 1.5 nM and 0.8 nM.
In the same order, the values of `CCOc1cc2ncnc(-c3cn(C)nc3-c3ccccc3)c2cc1NC(=O)c1cnn(C(F)(F)F)c1` [Example 232, N-(7-ethoxy-4-(1-methyl-3-phenyl-1H-pyrazol-4-yl)quinazolin-6-yl)-1-(trifluoromethyl)-1H-pyrazole-4-carboxamide] are 2.7 nM, 4.1 nM and 1.5 nM.
